These are literature values, as cited in patent US20100112053A1, “GASTRIC RETENTION-TYPE SUSTAINED-RELEASE LEVODOPA PREPARATION” (Kissei Pharmaceutical Co., Ltd., priority 2007, published 2010).

Read-outs that look alike come from different tables or passages of the source.

Setting [1] is: under a weakly acidic to basic condition.

As to `C[C@@](Cc1ccc(O)c(O)c1)(NN)C(=O)O` [carbidopa], the Solubility entry by setting is: under setting [1], “low”; (under an acidic condition) “high”.

Regarding `N[C@@H](Cc1ccc(O)c(O)c1)C(=O)O` [levodopa], the Solubility result is reported as “low” under setting [1] and “high” (under an acidic condition).
